Source: patent US20240109900A1, “AZABICYCLIC SHP2 INHIBITORS” (IRBM S.P.A., priority 2021, published 2024)
Read-outs that look alike come from different tables or passages of the source.

Assays:
[1] = biological target: SHP-2 enzyme (Met1-Leu525) (Homo sapiens (Human), UniProt Q06124); assay: SHP2 inhibition enzymatic assay; type: biochemical
How it was run: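 SHP-2 (Met1-Leu525), 0.5 nM, activated with 500 nM IRS1 bis-phosphopeptide, preincubated 30 min with compounds in HEPES pH 7.2 buffer with 5 mM DTT. 75 μM DiFMUP added for 30 min at room temperature, stopped with bpV; fluorescence read. IC50 from four-parameter logistic fit of % inhibition.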

[2] = test system: ERK phosphorylation in KYSE-520 cells; assay: Phospho-ERK cellular assay; type: cell-based; settings: read-out: PERK IC50
How it was run: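 TR-FRET read-out of ERK1/2 Thr202/Tyr204 phosphorylation was taken after overnight antibody incubation at room temperature. Before that, KYSE-520 cells were treated 2 h at 37 °C with compound dilutions and lysed 30 min. Percent inhibition relative to vehicle and cell-free wells was fitted four-parametrically to give IC50.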

[3] = 0.5 nM SHP-2 activated by 500 nM IRS1 peptide, 75 μM DiFMUP substrate, read-out: SHP2wt-IC50
[4] = Homo sapiens, KYSE-520, 2 h, KYSE-520 cells, 2 h at 37° C., phospho-ERK1/2 (Thr202/Tyr204) TR-FRET

Sequence of SHP-2 enzyme (Met1-Leu525) (Q06124 1-525): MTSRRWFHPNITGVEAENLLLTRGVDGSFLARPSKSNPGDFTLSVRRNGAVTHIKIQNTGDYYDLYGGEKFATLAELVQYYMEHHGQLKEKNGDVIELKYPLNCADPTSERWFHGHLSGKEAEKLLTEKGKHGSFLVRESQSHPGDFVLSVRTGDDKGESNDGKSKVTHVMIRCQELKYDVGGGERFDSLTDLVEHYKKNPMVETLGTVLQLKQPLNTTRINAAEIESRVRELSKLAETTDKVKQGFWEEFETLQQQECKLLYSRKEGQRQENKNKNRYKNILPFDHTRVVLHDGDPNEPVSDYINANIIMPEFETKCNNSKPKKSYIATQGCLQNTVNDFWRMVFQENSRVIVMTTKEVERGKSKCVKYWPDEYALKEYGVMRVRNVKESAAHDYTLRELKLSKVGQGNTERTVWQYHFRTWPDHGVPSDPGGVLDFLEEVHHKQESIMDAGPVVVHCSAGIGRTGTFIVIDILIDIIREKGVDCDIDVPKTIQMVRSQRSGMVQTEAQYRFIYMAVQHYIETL

Row | Compound | IC50 [1, 3] | IC50 [2, 4] | further results
1 | Cc1c(-c2n[nH]c3nc(N4CC[C@@H]5[C@H](C4)[C@@]5(CN)c4ccccc4F)cnc23)ccc2nn(C)cc12 [Example 145, ((1S,6R,7R)-3-(3-(2,4-dimethyl-2H-indazol-5-yl)-1H-pyrazolo[3,4-b]pyrazin-6-yl)-7-(2-fluorophenyl)-3-azabicyclo[4.1.0]heptan-7-yl)methanamine] | < 500 nM | < 1000 nM | 
2 | Cc1nccc(-c2n[nH]c3nc(N4CC[C@@H]5[C@H](C4)[C@@]5(CN)c4ccccc4F)cnc23)c1Cl [Example 189, ((1S,6R,7R)-3-(3-(3-chloro-2-methylpyridin-4-yl)-1H-pyrazolo[3,4-b]pyrazin-6-yl)-7-(2-fluorophenyl)-3-azabicyclo[4.1.0]heptan-7-yl)methanamine] | < 500 nM | < 1000 nM | 
3 | NC[C@]1(c2c(F)cccc2F)[C@@H]2CCN(c3cnc4c(-c5cccn6nccc56)n[nH]c4n3)C[C@@H]21 [Example 116, ((1S,6R,7R)-7-(2,6-difluorophenyl)-3-(3-(pyrazolo[1,5-a]pyridin-4-yl)-1H-pyrazolo[3,4-b]pyrazin-6-yl)-3-azabicyclo[4.1.0]heptan-7-yl)methanamine] | < 500 nM | < 1000 nM | 
4 | Cn1c(-c2n[nH]c3nc(N4CC[C@@H]5[C@H](C4)[C@@]5(CN)c4ccccc4F)cnc23)cccc1=O [Example 198, 6-(6-((1S,6R,7R)-7-(aminomethyl)-7-(2-fluorophenyl)-3-azabicyclo[4.1.0]heptan-3-yl)-1H-pyrazolo[3,4-b]pyrazin-3-yl)-1-methylpyridin-2(1H)-one] | < 500 nM | < 1000 nM | 
5 | NCC1(c2ccccc2)C2CCN(c3nc4nc(Sc5cccnc5C(F)(F)F)cnc4[nH]3)CC21 (stereo not shown) [Example 63, (7-phenyl-3-(5-((2-(trifluoromethyl)pyridin-3-yl)thio)-1H-imidazo[4,5-b]pyrazin-2-yl)-3-azabicyclo[4.1.0]heptan-7-yl)methanamine] |  |  | IC50 ([1]; read-out: SHP2wt-IC50): < 500 nM; IC50 ([2]; Homo sapiens, KYSE-520 cells, 2 h at 37° C., phospho-ERK1/2 (Thr202/Tyr204) TR-FRET): 1000 to 5000 nM
6 | Cc1cc([C@@]2(CN)[C@@H]3CCN(c4cnc5c(-c6ccc7nn(C)c(C)c7c6Cl)n[nH]c5n4)C[C@@H]32)no1 [Example 108, ((1S,6R,7S)-3-(3-(4-chloro-2,3-dimethyl-2H-indazol-5-yl)-1H-pyrazolo[3,4-b]pyrazin-6-yl)-7-(5-methylisoxazol-3-yl)-3-azabicyclo[4.1.0]heptan-7-yl)methanamine] | < 500 nM | < 1000 nM | 
7 | Cc1cc(C2(CN)C3CCN(c4cnc5c(-c6ccnc(N)c6Cl)n[nH]c5n4)CC32)no1 (stereo not shown) [Example 36, 4-(6-(7-(aminomethyl)-7-(5-methylisoxazol-3-yl)-3-azabicyclo[4.1.0]heptan-3-yl)-1H-pyrazolo[3,4-b]pyrazin-3-yl)-3-chloropyridin-2-amine] | < 500 nM | < 1000 nM | 
8 | Cc1cc([C@@]2(CN)[C@@H]3CCN(c4cnc5c(-c6ccc7nn(C)cc7c6C)n[nH]c5n4)C[C@@H]32)no1 [Example 127, ((1S,6R,7S)-3-(3-(2,4-dimethyl-2H-indazol-5-yl)-1H-pyrazolo[3,4-b]pyrazin-6-yl)-7-(5-methylisoxazol-3-yl)-3-azabicyclo[4.1.0]heptan-7-yl)methanamine] | < 500 nM | < 1000 nM | 
9 | NCC1(c2cccc(F)c2)C2CCN(c3nc4[nH]nc(-c5ccccc5)c4nc3CO)CC21 (stereo not shown) [Example 56, (6-(7-(aminomethyl)-7-(3-fluorophenyl)-3-azabicyclo[4.1.0]heptan-3-yl)-3-phenyl-1H-pyrazolo[3,4-b]pyrazin-5-yl)methanol] | < 500 nM | < 1000 nM | 
10 | Cc1csc(C2(CN)C3CCN(c4cnc5c(-c6ccc(OS(=O)(=O)F)c(Cl)c6Cl)n[nH]c5n4)CC32)n1 (stereo not shown) [Example 450, 4-(6-(7-(aminomethyl)-7-(4-methylthiazol-2-yl)-3-azabicyclo[4.1.0]heptan-3-yl)-1H-pyrazolo[3,4-b]pyrazin-3-yl)-2,3-dichlorophenyl sulfurofluoridate] |  |  | IC50 ([1]; SHP2wt-IC50, 0.5 nM SHP-2 activated by 500 nM IRS1 peptide, 75 μM DiFMUP substrate): < 500 nM; IC50 ([2]; Homo sapiens, KYSE-520, 2 h): < 1000 nM
11 | Cc1csc([C@@]2(CN)[C@@H]3CN(c4cnc5c(-c6ccncc6Cl)n[nH]c5n4)C[C@@H]32)n1 [Example 519] | < 500 nM |  | IC50 ([2]; KYSE-520 cells, 2 h at 37° C., phospho-ERK1/2 (Thr202/Tyr204) TR-FRET): < 1000 nM
12 | Cn1c(=O)n(C)c2cc(-c3n[nH]c4nc(N5CC[C@@H]6[C@H](C5)[C@@]6(CN)c5ccccc5F)cnc34)ccc21 [Example 232, 5-(6-((1S,6R,7R)-7-(aminomethyl)-7-(2-fluorophenyl)-3-azabicyclo[4.1.0]heptan-3-yl)-1H-pyrazolo[3,4-b]pyrazin-3-yl)-1,3-dimethyl-1,3-dihydro-2H-benzo[d]imidazol-2-one] | < 500 nM | < 1000 nM | 
13 | NC[C@]1(c2ccccc2F)[C@@H]2CCN(c3cnc4c(-c5ccc6c(c5)S(=O)(=O)NC6=O)n[nH]c4n3)C[C@@H]21 [Example 249, 6-(6-((1S,6R,7R)-7-(aminomethyl)-7-(2-fluorophenyl)-3-azabicyclo[4.1.0]heptan-3-yl)-1H-pyrazolo[3,4-b]pyrazin-3-yl)benzo[d]isothiazol-3(2H)-one 1,1-dioxide] | < 500 nM | > 5000 nM | 
14 | COc1ccc2c(-c3n[nH]c4nc(N5CC[C@@H]6[C@H](C5)[C@@]6(CN)c5ccccc5F)cnc34)ccnc2c1 [Example 191, ((1S,6R,7R)-7-(2-fluorophenyl)-3-(3-(7-methoxyquinolin-4-yl)-1H-pyrazolo[3,4-b]pyrazin-6-yl)-3-azabicyclo[4.1.0]heptan-7-yl)methanamine] | < 500 nM | < 1000 nM | 

Now from value to compound, other results behind:

Row | IC50 [1, 3] | IC50 [2, 4] | Compound | further results
15 | < 500 nM | < 1000 nM | NC[C@]1(c2ccccc2F)[C@@H]2CCN(c3cnc(Sc4ccnc(N)c4Cl)c(N)n3)C[C@@H]21 [Example 384, 3-((2-amino-3-chloropyridin-4-yl)thio)-6-((1S,6R,7R)-7-(aminomethyl)-7-(2-fluorophenyl)-3-azabicyclo[4.1.0]heptan-3-yl)pyrazin-2-amine] | 
16 | < 500 nM | < 1000 nM | Cc1nc(N)ccc1-c1n[nH]c2nc(N3CC[C@@H]4[C@H](C3)[C@@]4(CN)c3ccccc3F)cnc12 [Example 368, 5-(6-((1S,6R,7R)-7-(aminomethyl)-7-(2-fluorophenyl)-3-azabicyclo[4.1.0]heptan-3-yl)-1H-pyrazolo[3,4-b]pyrazin-3-yl)-6-methylpyridin-2-amine] | 
17 | < 500 nM | < 1000 nM | NC[C@]1(c2ccccc2F)[C@@H]2CCN(c3cnc4c(-c5ccc(-n6cccc6)cc5Cl)n[nH]c4n3)C[C@@H]21 [Example 454, ((1S,6R,7R)-3-(3-(2-chloro-4-(1H-pyrrol-1-yl)phenyl)-1H-pyrazolo[3,4-b]pyrazin-6-yl)-7-(2-fluorophenyl)-3-azabicyclo[4.1.0]heptan-7-yl)methanamine] | 
18 | < 500 nM | > 5000 nM | NCC1(c2ccccc2F)[C@@H]2CCN(c3cnc(Sc4ccnc(-n5cccn5)c4Cl)cn3)CC[C@@H]21 (stereo partly drawn) [Example 403, ((1R,7S)-4-(5-((3-chloro-2-(1H-pyrazol-1-yl)pyridin-4-yl)thio)pyrazin-2-yl)-8-(2-fluorophenyl)-4-azabicyclo[5.1.0]octan-8-yl)methanamine] | 
19 | < 500 nM | < 1000 nM | NC[C@]1(c2ccccc2F)[C@@H]2CCN(c3cnc4c(-c5ccc6ncncc6c5)n[nH]c4n3)C[C@@H]21 [Example 290, ((1S,6R,7R)-7-(2-fluorophenyl)-3-(3-(quinazolin-6-yl)-1H-pyrazolo[3,4-b]pyrazin-6-yl)-3-azabicyclo[4.1.0]heptan-7-yl)methanamine] | 
20 | < 500 nM | < 1000 nM | Cn1cnc2c(Cl)c(-c3n[nH]c4nc(N5CC[C@@H]6[C@H](C5)[C@@]6(CN)c5ccccc5F)cnc34)ccc21 [Example 329, ((1S,6R,7R)-3-(3-(4-chloro-1-methyl-1H-benzo[d]imidazol-5-yl)-1H-pyrazolo[3,4-b]pyrazin-6-yl)-7-(2-fluorophenyl)-3-azabicyclo[4.1.0]heptan-7-yl)methanamine] | 
21 | < 500 nM | < 1000 nM | NC[C@]1(c2ccccc2F)[C@@H]2CCN(c3cnc4c(-c5ccc(O)cc5F)n[nH]c4n3)C[C@@H]21 [Example 332, 4-(6-((1S,6R,7R)-7-(aminomethyl)-7-(2-fluorophenyl)-3-azabicyclo[4.1.0]heptan-3-yl)-1H-pyrazolo[3,4-b]pyrazin-3-yl)-3-fluorophenol] | 
22 | < 500 nM | < 1000 nM | Cn1c(=O)oc2cc(-c3n[nH]c4nc(N5CC[C@@H]6[C@H](C5)[C@@]6(CN)c5ccccc5F)cnc34)ccc21 [Example 353, 6-(6-((1S,6R,7R)-7-(aminomethyl)-7-(2-fluorophenyl)-3-azabicyclo[4.1.0]heptan-3-yl)-1H-pyrazolo[3,4-b]pyrazin-3-yl)-3-methylbenzo[d]oxazol-2(3H)-one] | 
23 | < 500 nM | < 1000 nM | Cn1c(=O)[nH]c2cc(-c3n[nH]c4nc(N5CC[C@@H]6[C@H](C5)[C@@]6(CN)c5ccccc5F)cnc34)ccc21 [Example 289, 5-(6-((1S,6R,7R)-7-(aminomethyl)-7-(2-fluorophenyl)-3-azabicyclo[4.1.0]heptan-3-yl)-1H-pyrazolo[3,4-b]pyrazin-3-yl)-1-methyl-1,3-dihydro-2H-benzo[d]imidazol-2-one] | 
